Data as given in US7989420B2, “Smooth muscle relaxation” (New York Medical College, priority 2006, dated 2011).

Columns and labels:
[1] = tested on: bovine pulmonary arteries (BPA); assay: Heme content of BPA homogenates (QuantiChrom heme assay); assay type: cell-based; settings: organ culture with 100 μM ALA and/or 100 μM Fe
Method: Heme was quantified in BPA homogenates using a QuantiChrom heme assay kit purchased from BioAssay Systems, and changes in absorbance were measured in a BIOTEK scanning microplate spectrophotometer. Briefly, segments were homogenized in 20 mM MOPS+sucrose buffer and diluted to approximately 5 mg protein/ml. Homogenates were centrifuged at 2000×g for 5 min, and 50 μl of supernatant obtained were assayed for their heme content based on the manufacture's instructions, employing measurements of changes in absorbance at 400 nm. The protein content of the supernatant was measured with Biorad protein assay kit, and tissue heme levels were reported as nanomoles/mg protein.

bovine bronchi = assay: Force generation to acetylcholine in organ cultured bovine bronchi; assay type: cell-based; settings: organ culture with 0.1 mM ALA for 24 hrs vs absence of ALA
Method: Studies on the Regulation of Contractile Function. Following the overnight incubation, arterial rings were mounted on wire hooks attached to Grass (FT03) force displacement transducers for measurement of changes in isometric force. Tension was adjusted to 5 g, which is the optimal passive force for maximal contraction. Changes in force were recorded on a Grass polygraph (model 7), while vessels were incubated in 10-ml baths (Metro Scientific), which were individually thermostated (37° C.) in Krebs buffer gassed with 21% O2-5% CO2 (balance N2) in the absence of compounds used to modulate BPA protoporphyrin IX levels. Arteries were incubated for 1 h during which passive tension was adjusted to maintain 5 grams. […] The effects of ODQ on relaxation to NO was determined by first contracting organ cultured control and ODQ-treated BPA with 1 μM 5-HT (after the initial exposure to increasing concentrations of 5-HT and a 30 min equilibration in Krebs).
Bovine bronchi were isolated from the same lungs used for pulmonary arteries, and studied for changes in protoporphyrin IX fluorescence and force under the same conditions as bovine pulmonary arteries described above. Superoxide was detected by the chemiluminescence produced by 5 μM lucigenin, which was detected by photon counting in a scintillation counter.

aorta = assay: Contraction to PDBu of aorta from rats treated with ALA in vivo; design: species or system rat; settings: single dose 60 mg/kg ALA i.p., 24 hours after treatment
Method: The rats were pretreated with 60 mg/kg ALA or with a saline vehicle (i.p.). After 24 hours they were anesthetized with 50 mg/kg sodium pentobarbital and the aorta was removed for in vitro studies. Isolated aortic rings were studied for changes in protoporphyrin IX fluorescence and force under the same conditions similar to those used for bovine pulmonary arteries described above, except that 1 gram of passive force was used.

NCC(=O)CCC(=O)O [ALA, δ-aminolevulinic acid]
BPA heme levels [1]: did not reach statistical significance | force generation to 10 μM acetylcholine (ACh) (bovine bronchi): inhibits (relaxes) force generation | contraction of aorta to 10 μM PDBu (aorta): decreased contraction
